In patent US20250197420A1, “MACROCYCLIC COMPOUNDS, COMPOSITIONS, AND METHODS OF USING THEREOF” (Sionna Therapeutics Inc., priority 2022, published 2025):

Key:
[1] = tested on: Primary human bronchial epithelial cells from a ΔF508 homozygous CF donor (CF-HBE cells); assay: TECC24 recording of CFTR-mediated transepithelial chloride transport, AUC fold over benchmark VX-809 @10 μM; type: cell-based; settings: 48 hours incubation, AUC of forskolin-stimulated IEQ
Procedure, shortened: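 CF-HBE cells on inserts were treated with compound for 48 h at 36.5 °C, then recorded in current-clamp with benzamil 10 μM, forskolin 10 μM, and finally CFTR inhibitor-172 20 μM in pH 7.4 Hepes saline. Equivalent Cl− current AUC between forskolin and inhibitor addition is expressed as a ratio to VX-809 AUC: A <3, B 3–6, C 6–20.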

[2] = biological target: T1, Purified recombinant NBD1 (Homo sapiens, UniProt P13569); assay: Aggregation analysis using differential static light scattering (DSLS): thermal stability of NBD1; type: binding; settings: NBD1 0.2 mg/ml; Tagg of compound well minus average Tagg of DMSO control wells
T1 construct: Purified recombinant NBD1 was produced using previously described methods; made in house
Procedure, shortened: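 Recombinant NBD1 at 0.2 mg/ml in Tris/NaCl/MgCl2 buffer with 2 mM ATP, 2 mM DTT, 1% glycerol, pH 7.6, was incubated with compound and heated at 1 °C/min to 70 °C while static light scattering was monitored. Tagg was taken from the curve inflection point and reported as ΔTagg relative to DMSO controls.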

T1 sequence (P13569 423-646 limits assumed): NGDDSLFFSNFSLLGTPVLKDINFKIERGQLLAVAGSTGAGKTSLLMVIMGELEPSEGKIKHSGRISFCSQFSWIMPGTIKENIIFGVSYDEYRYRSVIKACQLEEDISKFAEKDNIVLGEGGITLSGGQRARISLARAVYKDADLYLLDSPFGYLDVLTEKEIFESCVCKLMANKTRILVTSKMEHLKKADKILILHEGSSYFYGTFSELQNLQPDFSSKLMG

Compound	TECC (test agent AUC divided by VX-809 AUC) [1]	DSLS (ΔTagg) [2]
O=C(O)CCc1cccc(C2CCCNC(=O)CCc3c(c(F)cc4[nH]ccc34)Oc3ccc(F)c(c3)-c3ncc2[nH]3)c1 (stereo not drawn) [Compound 8, 3-[3-(21,27-Difluoro-11-oxo-23-oxa-3,10,18,29-tetrazapentacyclo[22.3.1.12,5.014,22.015,19]nonacosa-1(28),2,4,14,16,19,21,24,26-nonaen-6-yl)phenyl]propanoic acid]	A (a TECC value less than 3 is marked “A”)	C (a value greater than 10 °C and less than or equal to 25 °C is marked “C”)
CC1(c2cccc(CCC(=O)O)c2)CC(=O)NCCCCCc2c(c(F)cc3[nH]ccc23)Oc2ccc(F)c(c2)-c2ncc1[nH]2 (stereo not drawn) [Compound 26, 3-[3-(22,28-Difluoro-6-methyl-8-oxo-24-oxa-3,9,19,30-tetrazapentacyclo[23.3.1.12,5.015,23.016,20]triaconta-1(29),2,4,15,17,20,22,25,27-nonaen-6-yl)phenyl]propanoic acid]	B (a value between 3 and 6 is marked “B”)	C (a value greater than 10 °C and less than or equal to 25 °C is marked “C”)
CC1(c2ccccc2)CC(=O)NCCCCCc2c(c(F)cc3[nH]ccc23)Oc2ccc(F)c(c2)-c2ncc1[nH]2 (stereo not drawn) [Compound 27, 22,28-Difluoro-6-methyl-6-phenyl-24-oxa-3,9,19,30-tetrazapentacyclo[23.3.1.12,5.015,23.016,20]triaconta-1(29),2,4,15,17,20,22,25,27-nonaen-8-one]	A (a TECC value less than 3 is marked “A”)	A (an ΔTagg value less than or equal to 5 °C is marked “A”)
CN1CC(C)(C)CCCC(c2cccc(CCC(=O)O)c2F)c2cnc([nH]2)-c2cc(ccc2F)Oc2c(F)cc3[nH]ccc3c2CCC1=O (stereo not drawn) [Compound 28, 3-[3-(23,29-Difluoro-10,10,12-trimethyl-13-oxo-25-oxa-3,12,20,31-tetrazapentacyclo[24.3.1.12,5.016,24.017,21]hentriaconta-1(30),2,4,16,18,21,23,26,28-nonaen-6-yl)-2-fluoro-phenyl]propanoic acid]	A (a TECC value less than 3 is marked “A”)	C (a value greater than 10 °C and less than or equal to 25 °C is marked “C”)
CN1CCC(C)(C)CCC(C)(c2cccc(CCC(=O)O)c2)c2cnc([nH]2)-c2cc(ccc2F)Oc2c(F)cc3[nH]ccc3c2CCC1=O (stereo not drawn) [Compound 29, 3-[3-(23,29-Difluoro-6,9,9,12-tetramethyl-13-oxo-25-oxa-3,12,20,31-tetrazapentacyclo[24.3.1.12,5.016,24.017,21]hentriaconta-1(30),2,4,16,18,21,23,26,28-nonaen-6-yl)phenyl]propanoic acid]	B (a value between 3 and 6 is marked “B”)	C (a value greater than 10 °C and less than or equal to 25 °C is marked “C”)
CN1CCC(C)(C)CCC(c2cccc(CCC(=O)O)c2F)c2cnc([nH]2)-c2cc(ccc2F)Oc2c(F)cc3[nH]ccc3c2CCC1=O (stereo not drawn) [Compound 30, 3-[3-(23,29-Difluoro-9,9,12-trimethyl-13-oxo-25-oxa-3,12,20,31-tetrazapentacyclo[24.3.1.12,5.016,24.017,21]hentriaconta-1(30),2,4,16,18,21,23,26,28-nonaen-6-yl)-2-fluoro-phenyl]propanoic acid]	A (a TECC value less than 3 is marked “A”)	B (a value above 5 °C and less than or equal to 10 °C is marked “B”)
CN1CCC(C)(C)CCC(c2ccccc2F)c2cnc([nH]2)-c2cc(ccc2F)Oc2c(F)cc3[nH]ccc3c2CCC1=O (stereo not drawn) [Compound 31, 23,29-difluoro-6-(2-fluorophenyl)-9,9,12-trimethyl-25-oxa-3,12,20,31-tetrazapentacyclo[24.3.1.12,5.016,24.017,21]hentriaconta-1(30),2,4,16,18,21,23,26,28-nonaen-13-one]	A (a TECC value less than 3 is marked “A”)	A (an ΔTagg value less than or equal to 5 °C is marked “A”)
CN1CC(C)(C)CCC(C)(c2cccc(CCC(=O)O)c2)c2cnc([nH]2)-c2cc(ccc2F)Oc2c(F)cc3[nH]ccc3c2CCC1=O (stereo not drawn) [Compound 33, 3-[3-(22,28-Difluoro-6,9,9,11-tetramethyl-12-oxo-24-oxa-3,11,19,30-tetrazapentacyclo[23.3.1.12,5.015,23.016,20]triaconta-1(29),2,4,15,17,20,22,25,27-nonaen-6-yl)phenyl]propanoic acid]	A (a TECC value less than 3 is marked “A”)	B (a value above 5 °C and less than or equal to 10 °C is marked “B”)
CN1CC2(CCCC(C)(c3cccc(CCC(=O)O)c3)c3cnc([nH]3)-c3cc(ccc3F)Oc3c(F)cc4[nH]ccc4c3CCC1=O)CC2 (stereo not drawn) [Compound 34, 3-[3-(23,29-Difluoro-6,12-dimethyl-13-oxo-spiro[25-oxa-3,12,20,31-tetrazapentacyclo[24.3.1.12,5.016,24.017,21]hentriaconta-1(30),2,4,16,18,21,23,26,28-nonaene-10,1′-cyclopropane]-6-yl)phenyl]propanoic acid]	A (a TECC value less than 3 is marked “A”)	C (a value greater than 10 °C and less than or equal to 25 °C is marked “C”)
CN1CC2(CCCC(C)(c3ccccc3)c3cnc([nH]3)-c3cc(ccc3F)Oc3c(F)cc4[nH]ccc4c3CCC1=O)CC2 (stereo not drawn) [Compound 35, 23,29-Difluoro-6,12-dimethyl-6-phenyl-spiro[25-oxa-3,12,20,31-tetrazapentacyclo[24.3.1.12,5.016,24.017,21]hentriaconta-1(30),2,4,16,18,21,23,26,28-nonaene-10,1′-cyclopropane]-13-one]	A (a TECC value less than 3 is marked “A”)	A (an ΔTagg value less than or equal to 5 °C is marked “A”)
CC1(c2cccc(CCC(=O)O)c2)CCCC2(CC2)CNC(=O)CCc2c(c(F)cc3[nH]ccc23)Oc2ccc(F)c(c2)-c2ncc1[nH]2 (stereo not drawn) [Compound 36, 3-[3-(23,29-Difluoro-6-methyl-13-oxo-spiro[25-oxa-3,12,20,31-tetrazapentacyclo[24.3.1.12,5.016,24.017,21]hentriaconta-1(30),2,4,16,18,21,23,26,28-nonaene-10,1′-cyclopropane]-6-yl)phenyl]propanoic acid]	B (a value between 3 and 6 is marked “B”)	C (a value greater than 10 °C and less than or equal to 25 °C is marked “C”)
CC1(c2ccccc2)CCCC2(CC2)CNC(=O)CCc2c(c(F)cc3[nH]ccc23)Oc2ccc(F)c(c2)-c2ncc1[nH]2 (stereo not drawn) [Compound 37, 23,29-Difluoro-6-methyl-6-phenyl-spiro[25-oxa-3,12,20,31-tetrazapentacyclo[24.3.1.12,5.016,24.017,21]hentriaconta-1(30),2,4,16,18,21,23,26,28-nonaene-10,1′-cyclopropane]-13-one]	A (a TECC value less than 3 is marked “A”)	A (an ΔTagg value less than or equal to 5 °C is marked “A”)
CN1CC(C)(C)CCCC(c2cccc(CCC(=O)O)c2)n2ccc(n2)-c2cc(ccc2F)Oc2c(F)cc3[nH]ccc3c2CCC1=O (stereo not drawn) [Compound 38, 3-[3-(23,29-difluoro-10,10,12-trimethyl-13-oxo-25-oxa-5,12,20,31-tetrazapentacyclo[24.3.1.12,5.016,24.017,21]hentriaconta-1(30),2(31),3,16,18,21,23,26,28-nonaen-6-yl)phenyl]propanoic acid]	A (a TECC value less than 3 is marked “A”)	A (an ΔTagg value less than or equal to 5 °C is marked “A”)
CN1CC(C)(C)CCCC(c2ccccc2)n2ccc(n2)-c2cc(ccc2F)Oc2c(F)cc3[nH]ccc3c2CCC1=O (stereo not drawn) [Compound 39, 23,29-difluoro-10,10,12-trimethyl-6-phenyl-25-oxa-5,12,20,31-tetrazapentacyclo[24.3.1.12,5.016,24.017,21]hentriaconta-1(30),2(31),3,16,18,21,23,26,28-nonaen-13-one]	A (a TECC value less than 3 is marked “A”)	A (an ΔTagg value less than or equal to 5 °C is marked “A”)
CN1CC(C)(C)CCCC(c2cccc(CCC(=O)O)c2)c2cnc([nH]2)-c2cc(ccc2F)Oc2c(F)cc3[nH]ccc3c2CCC1=O (stereo not drawn) [Compound 41, 3-[3-(23,29-Difluoro-10,10,12-trimethyl-13-oxo-25-oxa-3,12,20,31-tetrazapentacyclo[24.3.1.12,5.016,24.017,21]hentriaconta-1(30),2,4,16,18,21,23,26,28-nonaen-6-yl)phenyl]propanoic acid]	B (a value between 3 and 6 is marked “B”)	B (a value above 5 °C and less than or equal to 10 °C is marked “B”)
